Laboratory results reported in ChEMBL document CHEMBL1155652, “Synthesis of the marine sponge cycloheptapeptide phakellistatin 5(1)” (2000).
Where a SMILES comes first, the peptide text is derived from it. [ ]: non-standard residue; d: D form.

How the values were obtained:
Format in all cases: functional
KM-20L2 = experiment: Growth inhibition of human KM20L2 cells
SF-295 = experiment: Growth inhibition of human SF295 cells
DU-145 = experiment: Growth inhibition of human DU145 cells
OVCAR-3 = experiment: Growth inhibition of human OVCAR-3 cells
P388 = experiment: Growth inhibition of mouse P388 cells
NCI-H460 = experiment: Growth inhibition of human NCI-H460 cells
SK-MEL-5 = experiment: Growth inhibition of human SK-MEL-5 cells

Row | GI50 (DU-145) | GI50 (OVCAR-3) | GI50 (P388) | GI50 (NCI-H460) | GI50 (SK-MEL-5) | SMILES | GI50 (KM-20L2) | GI50 (SF-295)
1 | > 10 µg/mL | > 10 µg/mL | > 10 µg/mL | > 10 µg/mL | > 10 µg/mL | CC[C@H](C)[C@@H]1NC(=O)[C@H](C)NC(=O)[C@H](CCSC)NC(=O)[C@H](C)NC(=O)[C@@H](CC(N)=O)NC(=O)[C@H](Cc2ccccc2)NC(=O)[C@@H]2CCCN2C1=O [(R)-ASN-PHAKELLISTATIN 5] (cyclo(AIPF[dN]AM)) | > 10 µg/mL | > 10 µg/mL
2 | > 10 µg/mL | > 10 µg/mL | > 10 µg/mL | > 10 µg/mL | > 10 µg/mL | CC[C@H](C)[C@@H]1NC(=O)[C@H](C)NC(=O)[C@H](CCSC)NC(=O)[C@H](C)NC(=O)[C@H](CC(N)=O)NC(=O)[C@H](Cc2ccccc2)NC(=O)[C@@H]2CCCN2C1=O [(S)-ASN-PHAKELLISTATIN 5] (cyclo(AIPFNAM)) | > 10 µg/mL | > 10 µg/mL
